Experimental data published in patent publication US20070099822A1, “Regulation of tissue mineralization and phosphate metabolism by asarm peptides” (priority 2003, published 2007).
Entries after “also recorded” stand apart in the source; their conditions may differ. Read-outs that look alike come from different tables or passages of the source. Square brackets hold non-standard residues; d marks the D form. Peptide text beside a SMILES is read from it. pS = N[C@@H](COP(=O)(O)O)C(=O)O

Columns and labels:
[1] = molecular target: T1, MEPE-PHEX interaction (Homo sapiens, UniProt P78562); assay: Surface plasmon resonance, peptide solution competition of secPHEX-MEPE binding; conditions: for inhibition of MEPE-PHEX interaction: peptide pre-mixed with secPHEX, MEPE-RGD up to 85 μM
T1 construct: to generate a soluble, secreted form of PHEX; made in house; host or cells: secPHEX: mammalian cells (gift, University of Montreal); MEPE: S. frugiperda insect cells
T1 sequence (P78562 46-749 limits assumed): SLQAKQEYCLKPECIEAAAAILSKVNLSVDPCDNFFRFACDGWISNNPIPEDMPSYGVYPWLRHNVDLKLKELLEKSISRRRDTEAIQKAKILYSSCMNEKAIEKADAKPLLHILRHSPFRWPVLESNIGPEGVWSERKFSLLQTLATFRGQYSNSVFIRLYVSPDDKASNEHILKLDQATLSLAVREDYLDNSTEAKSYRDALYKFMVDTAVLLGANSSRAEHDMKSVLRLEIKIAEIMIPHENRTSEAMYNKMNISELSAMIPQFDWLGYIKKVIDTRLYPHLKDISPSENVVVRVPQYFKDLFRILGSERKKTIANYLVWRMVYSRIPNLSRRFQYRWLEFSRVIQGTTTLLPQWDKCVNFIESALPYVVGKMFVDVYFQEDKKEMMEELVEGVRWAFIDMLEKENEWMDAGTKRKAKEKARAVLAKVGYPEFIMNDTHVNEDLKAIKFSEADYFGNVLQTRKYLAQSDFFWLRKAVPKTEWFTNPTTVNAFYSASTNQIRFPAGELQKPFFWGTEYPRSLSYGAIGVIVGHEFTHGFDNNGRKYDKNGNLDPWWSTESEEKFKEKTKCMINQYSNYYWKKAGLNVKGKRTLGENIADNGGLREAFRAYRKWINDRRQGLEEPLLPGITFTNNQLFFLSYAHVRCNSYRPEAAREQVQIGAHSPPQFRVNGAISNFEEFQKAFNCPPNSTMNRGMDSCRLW
Text: Surface Plasmon Resonance: Synthetic peptides & competitive PHEX-MEPE binding studies. For these experiments CM-5 chips containing flow-cells immobilized with MEPE, PHEX and IgG ligands at 6000 RU were used. Just prior to SPR injection, stock solution of specific-peptide (as defined for each experiment; see Table 1), and dissolved in analyte buffer (HBS-P—Zn) […] The following equation was used to compute KDapp values: RU=Bmax/inhib×(peptide(μM))/KDapp+(peptide(μM)). The Bmax/inh value represents the maximal percentage inhibition change in RU (i.e., PHEX-MEPE binding) relative to the “non-peptide” control (0% inhibition of binding), using a constant analyte flow-solution of secPHEX of 250 nM against immobilized MEPE ligand at 6000 RU. […] The control MEPE-RGD peptide had no effect on MEPE-PHEX interactions.

[2] = test system: male ICR Swiss mice; assay: Example VI: subcutaneous PO4-ASARM-peptide or etidronate, calcein fluorescence and Sanderson osteoid staining; format: in vivo; conditions: PO4-ASARM-peptide 2 mg/kg/day
Description: Subcutaneous administration of PO4-ASARM-peptide, etidronate (EHDP), and calcein. Three separate groups of male ICR Swiss mice (4-5 weeks) were subcutaneously injected once a day (9:00AM), for 12 days except for days 6 and 7 with 50 μL solutions of either (1) Eitidronate (EHDP) (10 mg/kg/day); (2) PO4-ASARM-peptide (2 mg/kg/day); or (3) vehicle consisting of 5 mM HEPES pH 7.4/150 mM NaCL/0.1% BSA. The synthetic PO4-ASARM-peptide was dissolved in vehicle (1.0 mg/mL). Etidronate was first dissolved in 150 mM NaCl and then buffered to pH 7.5 with 1M NaOH to give a 5 mg/mL solution. The 10 mg/kg/day doses of etidronate have previously been reported to inhibit mineralization in rats and were used as positive controls (Trechsel, et al., Am J Physiol 232(3):E298-305, 1977; Bonjour, et al., Am J Physiol 229(2):402-8, 1975). All three groups were subcutaneously injected with calcein (20 mg/kg/day) on days 3, 5, […]. The degree of calcein fluorescence and/or fluorescence-quenching is an indicator of mineralization status (see next section). The calcein injections when given were administered 1 h after the daily injections of PO4-ASARM-peptide, EHDP or vehicle. Animals were then terminated humanely and calvariae plus femurs/tibia were fixed in 70% ethanol (non-decalcified). After fluorescence imaging (see FIG. 35) calvariae were processed in plastic and stained with Sanderson's stain (see below). Five animals per group were used for statistical analysis of fluorescence quenching and histological Sanderson staining.
Calcein fluorescence in mice calvariae, hind-limbs & fluor-imager analysis of mineralization. A Bio-Rad (Hercules, Calif.) FluorImager^max fluorescent imager was used to simultaneously image all the samples from each of the 3 groups (15 animals; five animals per group). This consisted of 10 tibia/femurs and 5 calvariae per group. Samples were placed on top of the FluorImager plate contained within a light-tight box. Ultra-violet light was used to generate calcein-mediated epi-fluorescence and the fluorescent-image was captured on a −40° C., peltier-cooled, 1,340×1040 pixel CCD resolution, CCD digital-camera. Quantitation of fluorescence was carried out using Quantity-1 (Bio-Rad, Hercules, Calif.) fluorescence-software. Pixel saturation was prevented by internal software calibration and exposure adjustment. All fluorescence readings were thus accurately quantitative and non-saturating. Photo-micrographic UV fluorescent analysis of calvarial cross sections embedded in plastic and mounted as slides (<100 micrometer sections) was also undertaken and a description of the fixation and processing is given in the next section.
Sanderson-staining and fluorescence detection of calvarial osteoid & mineralized bone. Staining of non-decalcified calvarial sections was performed using the method described by Sanderson and Bachus (Staining technique to differentiate mineralized and demineralized bone in ground sections, J Histotechnol 20(2): 119-122, 1997). This technique provides differential staining between unmineralized osteoid and mineralized bone. Prior to staining, calvariae were dissected and attached tissue removed. Calvariae were then placed in 70% ethanol for further fixation as described by Sanderson and Bachus (supra). After fixing and processing undecalcified calvariae were embedded in plastic (LR-white acrylic resin (London Resin Co., Reading, England)) as previously described (Garrett, et al., Selective inhibitors of the osteoblast proteasome stimulate bone formation in vivo and in vitro, J Clin Invest 111(11):1771-1782, 2003). Plastic embedded sections were ground to <100 micrometers using a specialized grinding-pestle as described by Donath and Breuner (A method for the study of undecalcified bones and teeth with attached soft tissues. The Sage-Schliff (sawing and grinding) technique, J Oral Pathol 11(4):318-26, 1982). […]

[3] = test system: mouse osteoblast cell-line 2T3; assay: Mineralized bone matrix formation assay (von Kossa), BMP2-induced; format: cell-based; conditions: 2T3 cells, BMP2 100 ng/mL; Hu-MEPE 10-800 ng/mL, ASARM-peptide 60 and 300 ng/mL, control peptide 300 ng/mL
Text: Mineralized bone matrix formation assay. A mouse osteoblast cell-line (2T3-cells) were monitored using a mineralized matrix formation assay as described by Bhargava et al. (Ultrastructural analysis of bone nodules formed in vitro by isolated fetal rat calvaria cells. Bone 9:155-63, 1988) and cultured as described previously (Bhargava et al., supra; Chen et al. Differential roles for bone morphogenetic protein (BMP) receptor type IB and IA in differentiation and specification of mesenchymal precursor cells to osteoblast and adipocyte lineages. J Cell Biol 142:295-305, 1998; and Zhao, et al. Bone morphogenetic protein receptor signaling is necessary for normal murine postnatal bone formation. J Cell Biol 157:1049-60, 2002). Mineralization of the murine osteoblastic 2T3 cell-line has been extensively studied using physical techniques, electron microscopy and histological techniques. This cell line (2T3) undergoes exogenous BMP2-induced mineralized-matrix indistinguishable from normal bone-mineral hydroxyapatite in-vitro (Bhargava et al., supra; Chen et al., supra; and Zhao et al., supra). The cells were plated in 24-well culture plates at density of 2×10^4 cells/well and cultured with minimal essential medium (MEM) supplemented with 10% FCS. When the cells reached confluency (day 0), the medium was changed to MEM containing 5% FCS, 100 μg/mL ascorbic acid and 5 mM β-glycerol phosphate with or without 100 ng/mL of BMP-2. The effects of Hu-MEPE, MEPE ASARM-peptide and control peptide at different doses (see results section) in the absence and presence of BMP2 were measured using the von Kossa stain for mineralization. The medium was changed every other day and fresh reagents were added. Von Kossa stain of mineralized bone matrix was performed as follows. The cell cultures were washed with PBS twice, fixed in phosphate buffered formalin for 10 min, and then washed with water, and serially dehydrated in 70%, 95%, and 100% ethanol, twice each and air dried. The plates were rehydrated from 100% to 95% to 80% ethanol to water before staining. The water was removed, a 2% silver nitrate solution was added, and the plates were exposed to sunlight for 20 min, after which the plates were rinsed with water. 5% sodium thiosulfate was added for 3 min and the plates were then rinsed with water. The modified van Gieson stain was then used as a counterstain after the von Kossa stain. The unmineralized collagen matrix can be recognized by the yellow/red van Gieson stain. The acid fuchsin solution (5 part of 1% acid fuchsin, 95 part of picric acid, and 0.25 part of 12 M HCl) was added for 5 min. The plates were washed with water, and then 2×95% ethanol and 2×100% ethanol, and dried for image analysis. The area of von Kossa stained matrix was quantitated as previously described (Chen et al., supra). Briefly matrix was quantified by automated image analysis using a video analysis program (Jandel Scientific, San Rafael Calif.) and also a Bio-Rad (Hercules, Calif.) Quantity-1 image analysis capture program. A video screen camera (CCD/RGB; Sony Corp., Park Ridge, N.J.) linked to a microscope (model BH2; Olympus Corp., Precision Instruments Division, Lake Success, N.Y.) equipped with metallurgical lens was used to image plates.

Row | Compound | Bmax/inh, maximal percentage-inhibition of MEPE-PHEX binding ([1]; 250 nM secPHEX, MEPE 6000 RU) | Kd ([1]; 250 nM secPHEX, MEPE 6000 RU, read-out: apparent KDapp, solution competition of MEPE-PHEX binding) | Kd ([1]; apparent KDapp, solution competition of secPHEX-MEPE binding, 250 nM secPHEX, MEPE 6000 RU (FIG. 34 legend), heading: apparent KDapp, solution competition of secPHEX-MEPE binding) | inhibition of MEPE-PHEX interaction [1] | tibiae-femurs fluorescence-signal reduction relative to vehicle [2] | increase of osteoid layer thickness relative to vehicle ([2]; etidronate 10 mg/kg/day) | percentage quenching of calvarial calcein fluorescence relative to vehicle ([2]; etidronate 10 mg/kg/day) | calvariae calcein fluorescence ([2]; etidronate 10 mg/kg/day, s.c. 12 days, vehicle 1100.5) | calvarial osteoid relative thickness (Sanderson staining) ([2]; etidronate 10 mg/kg/day, vehicle 2.3) | tibiae-femurs calcein fluorescent intensity ([2]; vehicle 268.52) | effect on BMP2-mediated mineralization (von Kossa staining) [3] | inhibition of MEPE-PHEX interaction ([1]; listed as MEPE-RGD-peptide)
1 | N=C(N)NCCC[C@H](N)C(=O)N[C@@H](CC(=O)O)C(=O)N[C@@H](CC(=O)O)C(=O)N[C@@H](CO)C(=O)N[C@@H](CO)C(=O)N[C@@H](CCC(=O)O)C(=O)N[C@@H](CO)C(=O)N[C@@H](CO)C(=O)N[C@@H](CC(=O)O)C(=O)N[C@@H](CO)C(=O)NCC(=O)N[C@@H](COP(=O)(O)O)C(=O)N[C@@H](CO)C(=O)N[C@@H](COP(=O)(O)O)C(=O)N[C@@H](CCC(=O)O)C(=O)N[C@@H](COP(=O)(O)O)C(=O)N[C@@H](CC(=O)O)C(=O)NCC(=O)N[C@@H](CC(=O)O)C(=O)O [PO4-ASARM-peptide, RDDSSESSDSG(Sp)S(Sp)E(Sp)DGD] (H-RDDSSESSDSG[pS]S[pS]E[pS]DGD-OH) | 68% | 15 µM | 15 µM | able to inhibit; also recorded: dramatic dose-dependent inhibition | 44.5% | 3.5 fold | 62% | 568.7 fluorescent intensity units | 8.0 | 148.9 | – | –
2 | CGSGYTDLQERGDNDISPFSGDGQPF (Homo sapien) [control peptide, reference compound] | – | – | – | – | – | – | – | – | – | – | failed to elicit any changes in mineralization | –
3 | GSGYTDLQERGDNDISPFSGDGQPF (Homo sapien) [MEPE-RGD, 15, negative control, reference compound] | – | – | – | did not competitively inhibit; also recorded: no effect | – | – | – | – | – | – | – | no inhibition
